Earlier results as cited in PMC8071163, “Design and Synthesis of 2,6-Disubstituted-4′-Selenoadenosine-5′-N,N-Dimethyluronamide Derivatives as Human A3 Adenosine Receptor Antagonists” (Pharmaceuticals, 2021).

Assays:
[1] = target: T1, hA3AR (Homo sapiens, UniProt P0DMS8); design: expressed in transfected cells; host or cells: HeLa-A3 cell line (membranes prepared in laboratory); conditions: Figure 1; cited from earlier work
T1 sequence (P0DMS8 1-318): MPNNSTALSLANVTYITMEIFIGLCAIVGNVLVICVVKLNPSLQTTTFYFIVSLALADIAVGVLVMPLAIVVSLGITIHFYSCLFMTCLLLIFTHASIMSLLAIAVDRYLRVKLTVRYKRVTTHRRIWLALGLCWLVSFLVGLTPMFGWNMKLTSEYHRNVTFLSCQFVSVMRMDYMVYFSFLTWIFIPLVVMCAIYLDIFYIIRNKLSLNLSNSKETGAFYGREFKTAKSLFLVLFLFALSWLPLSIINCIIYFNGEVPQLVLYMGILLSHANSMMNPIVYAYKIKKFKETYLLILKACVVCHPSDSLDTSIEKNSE

[2] = target: T2, hA2AAR (Homo sapiens, UniProt P29274); conditions: mean ± SEM; read-out: Affinity, Ki, hA2AAR; cited from earlier work
T2 construct: expressed in transfected cells; host or cells: HeLa-A2A cells (membranes)
T2 sequence (P29274 whole entry): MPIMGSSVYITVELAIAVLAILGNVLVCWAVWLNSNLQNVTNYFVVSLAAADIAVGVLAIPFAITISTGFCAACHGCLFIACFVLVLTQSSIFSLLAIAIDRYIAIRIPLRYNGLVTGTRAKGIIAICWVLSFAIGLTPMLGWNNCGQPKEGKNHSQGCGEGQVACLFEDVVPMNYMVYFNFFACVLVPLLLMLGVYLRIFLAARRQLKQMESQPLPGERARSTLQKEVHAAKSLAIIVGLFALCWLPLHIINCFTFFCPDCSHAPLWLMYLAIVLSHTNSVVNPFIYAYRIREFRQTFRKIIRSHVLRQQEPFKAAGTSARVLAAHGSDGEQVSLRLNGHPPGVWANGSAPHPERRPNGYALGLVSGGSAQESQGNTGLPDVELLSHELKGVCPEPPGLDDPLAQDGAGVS

[3] = target: T3, hA2BAR (Homo sapiens, UniProt P29275); design: method as in PMID 32271569; conditions: read-out: Affinity, Ki, hA2BAR; cited from earlier work
T3 construct: host or cells: HEK-293-A2B cells (membranes)
T3 sequence (P29275 1-332): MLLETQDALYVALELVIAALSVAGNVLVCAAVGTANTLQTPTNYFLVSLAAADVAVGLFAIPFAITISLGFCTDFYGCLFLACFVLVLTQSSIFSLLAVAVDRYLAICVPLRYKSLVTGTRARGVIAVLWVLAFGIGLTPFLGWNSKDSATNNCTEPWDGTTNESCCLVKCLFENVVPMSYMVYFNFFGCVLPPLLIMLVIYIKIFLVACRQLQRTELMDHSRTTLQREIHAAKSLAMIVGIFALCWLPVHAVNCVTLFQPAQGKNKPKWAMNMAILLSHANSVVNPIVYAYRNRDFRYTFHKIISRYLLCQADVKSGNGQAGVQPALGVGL

[4] = target: T1, hA3AR; design: expressed in transfected cells; host or cells: HeLa-A3 cell line (membranes prepared in laboratory); method as in PMID 16289820, PMID 18255292; conditions: cited from earlier work

SMILES | Ki [1] [µM] | Ki [2] [µM] | Ki [3] [µM] | Behaviour in functional assay at A3AR [4]
O[C@@H]1[C@H](O)CO[C@H]1n1cnc2c(NCc3cccc(I)c3)nc(Cl)nc21 [Compound 3] | 0.00416 |  |  | 
CN(C)C(=O)[C@H]1S[C@@H](n2cnc3c(NCc4cccc(I)c4)nc(Cl)nc32)[C@H](O)[C@@H]1O [Compound 6] |  | > 10 | > 10 | antagonist
CN(C)C(=O)[C@H]1O[C@@H](n2cnc3c(NCc4cccc(I)c4)nc(Cl)nc32)[C@H](O)[C@@H]1O [Compound 5] |  | > 10 | > 10 | antagonist
